Experimental findings from article PMC4979872, “Synthesis, fluorescence properties and the promising cytotoxicity of pyrene–derived aminophosphonates” (Beilstein Journal of Organic Chemistry, 2016) are described below.

In data set [1] the test system is normal human lymphocytes. Put plainly: MTT cytotoxicity assay on normal human lymphocytes. Type of data set: cell-based. The conditions noted are these: 24 h incubation, 5 to 600 µM, mean ± SEM of six experiments. The text has this:
(§1) The cytotoxic effects of dimethyl aminophosphonates 3Aa, 3Ab, 3Ac, 3Ad, 3Ai and dimethyl [hydroxy(pyren-1-yl)methyl]phosphonate (5A) were investigated with two human colorectal carcinoma cell lines: HT29 and HCT116 and also on the normal human lymphocytes. For this a standard MTT (3-(4,5-dimethylthiazol-2-yl)-2,5-diphenyltetrazolium bromide) test was used and results presented as IC50 values (i.e., the concentration of the compound that inhibits 50% growth). The activity of the tested compounds was studied in the concentration range from 5 to 600 µM. […]
(§2) 2.1. Materials and methods
(§3) MTT assay (3-(4,5-dimethylthiazol-2-yl)-2,5-diphenyltetrazolium bromide) facilitates the determination of the level of cell survival after the exposure of cells to potentially toxic substances. The cytotoxicity level of studied compounds was evaluated by determining the dose or concentration that induces a standard biological response. The assessment of the cytotoxic activity of the tested compounds was carried out based on IC50 values – the concentration of the compound which causes inhibition of cell proliferation by 50% as compared to the negative control. To determine the above concentration, was created graphs of cell viability expressed in percentages, depending on the concentrations of studied […]
(§4) MTT (3(4,5-dimethylthiazol-2-yl)-2,5-diphenyltetrazolium bromide), lauryl sulfate (SLS), N,N-dimethylformamide (DMF), dimethyl sulfoxide (DMSO), penicillin-streptomycin solution stabilized, MEM non-essential amino acids solution, Histopaque 1077, and buffered saline (PBS) were purchased from Sigma Chemical Co. Foetal bovine serum (FBS), phytohemagglutinin (PHA), RPMI 1640 medium and Trypsin-EDTA were supplied by […]
All other chemicals (chemical reagents, substrates, and solvents) were of the highest commercial grade available and were purchased from CytoGen and Sigma–Aldrich.
Lymphocytes were isolated from the peripheral blood of healthy, non-smoking donors of both sexes by centrifugation in a density gradient of Histopaque 1077 (15 min., 300 × g) (blood was obtained from the Blood Donation Center in Lodz, Poland). The cells were suspended in the culture medium containing RPMI 1640, inactivated FBS (15%), penicillin and streptomycin (1%) and PHA (1%). […]
The lymphocytes, HCT116 […]
and HT29 cells were cultured at 37 °C in a humidified atmosphere of 95% air and 5% CO2.
(§5) A MTT assay was used to assess cell survival after treatment with studied compounds. The MTT assay is a quantitative colorimetric method to determine cell proliferation after treatment with the tested compounds. It is widely used to estimate the cytotoxic effect of chemicals on different types of cells. MTT (3(4,5-dimethyl-2-thiazolyl)-2,5-diphenyl-2H-tetrazolium bromide) is a water-soluble tetrazolium salt, which is converted into an insoluble purple formazan by cleavage of the tertazolium ring by succinate dehydrogenase within the mitochondria. The formazan product is impermeable to the cell membranes and therefore it accumulates in living cells. The purple crystals were extracted into a solution for homogeneous staining and the absorbance was read on a spectrophotometer at 595 nm. The percent reduction of MTT was compared to controls (cells not exposed to tested compounds), which represented 100% MTT reduction. The assay was optimized for the cell lines and chemical compounds used in the experiments.
The cancer cells and human lymphocytes were grown for 24 h on 96-well plates at a density of 6–8 × 10^3 cells/well and 8 × 10^5 cells/well, respectively. Then the cells were treated with the tested compounds for 24 h incubation periods in a volume of 50 μl per well for the lymphocytes and 100 μl per well for the HCT116, HT29 cells. Subsequently, a fresh MTT solution (lymphocytes, HCT116 and HT29: 20 μl, 5 mg/ml in sterile PBS) was added to each well for the next 4 h. Purple crystals forming in the cancer cells after the reduction of MTT were dissolved by DMSO (100 μl/well). In the case of lymphocytes this was achieved by […]
(In general: Tetrazolium dyes change colour on reduction, which living cells bring about.)

Data set [2] deals with HT29 human colorectal adenocarcinoma cell line. Put plainly: MTT cytotoxicity assay on HT29 cells. Type of data set: cell-based. To be noted: 24 h incubation, 5 to 600 µM, mean ± SEM of six experiments.
Description: as §1, §2, §3, §4
(§6) All other chemicals (chemical reagents, substrates, and solvents) were of the highest commercial grade available and were purchased from CytoGen and Sigma–Aldrich. […]
(§7) The human colorectal carcinoma cell line (HCT116) and the human colorectal adenocarcinoma cell line (HT29) were obtained from the American Type Culture Collection (ATCC, Rockville, USA). The HCT116 cells were cultured in RPMI 1640 supplemented with FBS (10%) and antibiotics (1%): penicillin and streptomycin. The HT29 cells were cultured in RPMI 1640 medium supplemented with FBS (10%), antibiotics (1%): penicillin and streptomycin, and MEM non-essential amino acids solution (1%). The lymphocytes, HCT116 and HT29 cells were cultured at 37 °C in a humidified atmosphere of 95% air and 5% CO2.
as §5
(§8) The cancer cells and human lymphocytes were grown for 24 h on 96-well plates at a density of 6–8 × 10^3 cells/well and 8 × 10^5 cells/well, respectively. Then the cells were treated with the tested compounds for 24 h incubation periods in a volume of 50 μl per well for the lymphocytes and 100 μl per well for the HCT116, HT29 cells. Subsequently, a fresh MTT solution (lymphocytes, HCT116 and HT29: 20 μl, 5 mg/ml in sterile PBS) was added to each […]
(§9) well for the next 4 h. […]

Data set [3] has as its system HCT116 human colorectal carcinoma cell line. Put plainly: MTT cytotoxicity assay on HCT116 cells. Type of data set: cell-based. To be noted: 24 h incubation, 5 to 600 µM, mean ± SEM of six experiments.
Description: as §1, §2, §3, §4, §6, §7, §5, §8, §9

`O=P(OCc1ccccc1)(OCc1ccccc1)C(NCc1ccccc1)c1ccc2ccc3cccc4ccc1c2c34` (centres unmarked): the melting point (commonly the temperature of the solid-liquid transition) is 100 to 101 °C.

In turn, `O=P(O)(O)C(NCc1ccccc1)c1ccc2ccc3cccc4ccc1c2c34` (centres unmarked) returned a melting point of 235 to 236 °C.

Turning to `COP(=O)(OC)C(NCc1ccccc1)c1ccc2ccc3cccc4ccc1c2c34` (centres unmarked) [Compound 3Aa], the IC50 – broadly, the point on the concentration scale where inhibition reaches its midpoint – is 89.2 µM in data set [1] (Homo sapiens, Lymphocyte, 24 h); 29.2 µM in data set [2] (Homo sapiens, HT-29, 24 h); 29 µM in data set [3] (Homo sapiens, HCT-116, 24 h).

For `COP(=O)(OC)C(Nc1ccccc1)c1ccc2ccc3cccc4ccc1c2c34` (centres unmarked) [Compound 3Ab], the melting point lay in the range of 203 to 204 °C. The IC50 in data set [1] (Homo sapiens, Lymphocyte, 24 h) was determined as 334 µM. In data set [2] (Homo sapiens, HT-29, 24 h), this compound registered an IC50 of 106 µM. In data set [3] (Homo sapiens, HCT-116, 24 h), this compound registered a 50% inhibitory concentration (IC50) of 70.8 µM.

Turning to `COP(=O)(OC)C(Nc1ccc(C)cc1)c1ccc2ccc3cccc4ccc1c2c34` (centres unmarked) [Compound 3Ac, dimethyl N-(4-methylphenyl)amino(pyren-1-yl)methylphosphonate], the 50% inhibitory concentration (IC50) worked out at 17.5 µM in data set [1] (Homo sapiens, Lymphocyte, 24 h); 15.8 µM in data set [2] (Homo sapiens, HT-29, 24 h); 15.9 µM in data set [3] (Homo sapiens, HCT-116, 24 h).

Regarding `COc1ccc(NC(c2ccc3ccc4cccc5ccc2c3c45)P(=O)(OC)OC)cc1` (centres unmarked) [Compound 3Ad, dimethyl N-(4-methoxyphenyl)amino(pyren-1-yl)methylphosphonate], the IC50 in data set [1] was 231 µM; in data set [1] (Homo sapiens, Lymphocyte, 24 h), approximately 230 µM; in data set [2], 24.2 µM; in data set [2] (Homo sapiens, HT-29, 24 h), approximately 20 µM; in data set [3] it was 20.8 µM; in data set [3] (Homo sapiens, HCT-116, 24 h), approximately 20 µM.

For the compound `COP(=O)(OC)C(Nc1cccc(C)c1)c1ccc2ccc3cccc4ccc1c2c34` (centres unmarked) [Compound 3Ai, dimethyl N-(m-methylphenyl)amino(pyren-1-yl)methylphosphonate], the melting point lay within 209 to 210 °C. The half-inhibitory concentration (IC50) in data set [1] (Homo sapiens, Lymphocyte, 24 h) amounted to 75.8 µM. 57.5 µM corresponded to half-maximal inhibition in data set [2] (Homo sapiens, HT-29, 24 h) (IC50). Moreover, the IC50 in data set [3] (Homo sapiens, HCT-116, 24 h) turned out to be 20.2 µM.

For `Cc1ccc(NC(c2ccc3ccc4cccc5ccc2c3c45)P(=O)(O)O)cc1` (centres unmarked) [Compound 4c], the melting point lay within 210 to 211 °C. Further, the concentration for half-maximal inhibition (IC50) in data set [1] (Homo sapiens, Lymphocyte, 24 h) is approximately 17 µM. In addition, in data set [2] (Homo sapiens, HT-29, 24 h), the 50% inhibitory concentration (IC50) is approximately 15 µM. In addition, in data set [3] (Homo sapiens, HCT-116, 24 h), the 50% inhibitory concentration (IC50) is approximately 15 µM.

Consider `COP(=O)(OC)C(O)c1ccc2ccc3cccc4ccc1c2c34` (centres unmarked) [Compound 5A, dimethyl hydroxy(pyren-1-yl)methylphosphonate], for which the half-maximal inhibitory concentration (IC50) amounted to 136 µM in data set [1] (Homo sapiens, Lymphocyte, 24 h); 25.8 µM in data set [2] (Homo sapiens, HT-29, 24 h); 40.4 µM in data set [3] (Homo sapiens, HCT-116, 24 h).
